The values below come from PubChem BioAssay (NCI).

Among the test systems are A498 renal; DU-145 prostate; HT29 colon; M14 melanoma; MDA-MB-231 breast; MDA-MB-435; NCI-H226 lung; T-47D breast; UACC-257 melanoma; UO-31 renal.
Test in all cases: DTP human tumour cell line panel, 48 h

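Compound exposure: 48 hours, 5 concentrations, 96-well plates. Abbreviation: GI50, concentration required for 50% inhibition of growth. TGI is the concentration that stops growth completely.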 Bounds are passed on as bounds.

For `FC(F)(F)c1ccc2c(Nc3cccc(C4CC(c5ccccc5)=NN4c4ccc(Cl)cc4)c3)ccnc2c1` (stereo not given), the GI50 (as a rule, the concentration giving 50% growth inhibition) is 9.9 µM in the test with A498 renal; 3.61 µM with DU-145 prostate; 3.3 µM in the test on HT29 colon; 3.93 µM in the test on M14 melanoma; 3.88 µM with MDA-MB-231 breast; 2.97 µM in the test on MDA-MB-435. Besides, the GI50 was 15 µM with NCI-H226 lung, 5.93 µM in the test on T-47D breast, 11.2 µM with UACC-257 melanoma and 1.82 µM in the test with UO-31 renal. The TGI (usually the concentration at which net growth stops) came out at 45.6 µM in the test on A498 renal; 15.4 µM with DU-145 prostate; 12.5 µM in the test with HT29 colon; 22 µM with M14 melanoma; 15.9 µM with MDA-MB-231 breast; 11.6 µM with MDA-MB-435. Further, the concentration for total growth inhibition (TGI) in the test on NCI-H226 lung was 36.2 µM; in the test with T-47D breast, 37.4 µM; in the test with UACC-257 melanoma it was 32.6 µM; in the test on UO-31 renal, 9.68 µM.
With `CCN(Cc1c(F)cccc1F)c1ccc(CO)c(Cl)c1`, the GI50 in the test on A498 renal is 0.0173 µM; in the test on DU-145 prostate, 12.3 µM; in the test on HT29 colon it was 0.747 µM; in the test on M14 melanoma, 19.4 µM; in the test on MDA-MB-231 breast it was 13 µM; in the test with MDA-MB-435 it was 14.8 µM. For the same molecule, the 50% growth inhibitory concentration (GI50) was 0.0318 µM with NCI-H226 lung, 0.0516 µM in the test on T-47D breast, 0.0389 µM in the test with UACC-257 melanoma and 2.3 µM in the test with UO-31 renal. In addition, the concentration for total growth inhibition (TGI) with A498 renal came out at 0.069 µM; in the test on DU-145 prostate, 47 µM; in the test on HT29 colon, 19.5 µM; in the test with M14 melanoma, 48.1 µM; in the test with MDA-MB-231 breast, 38.3 µM; in the test with MDA-MB-435, 40.9 µM. In addition, the TGI stood at 0.126 µM in the test on NCI-H226 lung, 0.288 µM in the test on T-47D breast, 0.149 µM in the test with UACC-257 melanoma and 51.4 µM in the test on UO-31 renal.
For `COc1ccc(NC2=C(Br)C(=O)C(C)=C(C)C2=O)cc1`, the GI50 in the test on A498 renal was 1.62 µM; in the test with DU-145 prostate, 15 µM; in the test with HT29 colon it was 27.4 µM; in the test with M14 melanoma, 11.7 µM; in the test with MDA-MB-231 breast, 1.88 µM; in the test on MDA-MB-435, 1.91 µM. Also, the GI50 in the test on NCI-H226 lung is 13 µM; in the test on T-47D breast it was 1.93 µM; with UACC-257 melanoma, 1.75 µM; with UO-31 renal it was 1.73 µM. Besides, the TGI is 33.6 µM in the test on A498 renal; 29.1 µM in the test with DU-145 prostate; 79.6 µM with HT29 colon; 24.8 µM in the test with M14 melanoma; 3.96 µM with MDA-MB-231 breast; 3.49 µM in the test on MDA-MB-435. The TGI is 27.6 µM in the test with NCI-H226 lung, 4.81 µM in the test with T-47D breast, 3.37 µM in the test on UACC-257 melanoma and 3.16 µM in the test on UO-31 renal.
With `COC(=O)C(Cc1ccccc1)N/C=C\C(=O)c1ccc(Cl)cc1` (stereo not given), the GI50 in the test on A498 renal was 31.1 µM; with DU-145 prostate it was 31.5 µM; with HT29 colon, 35.1 µM; with M14 melanoma, 19.1 µM; in the test on MDA-MB-231 breast, 14.4 µM; in the test on MDA-MB-435, 14.1 µM. The GI50 in the test on NCI-H226 lung is 26 µM; in the test on T-47D breast, 37 µM; in the test with UACC-257 melanoma it was 26.5 µM; with UO-31 renal, 38.4 µM. The concentration for total growth inhibition (TGI) in the test with A498 renal is 75.8 µM; in the test on DU-145 prostate, greater than 100 µM; with HT29 colon, greater than 100 µM; with M14 melanoma it was 44.7 µM; in the test with MDA-MB-231 breast, 40.9 µM; with MDA-MB-435, 30.8 µM. In addition, the TGI in the test with NCI-H226 lung is 77.3 µM; in the test on T-47D breast it was greater than 100 µM; in the test on UACC-257 melanoma, 67.1 µM; with UO-31 renal, greater than 100 µM.
Take `Oc1ccc(Cc2ccccc2)c2cccnc12`: the GI50 in the test with A498 renal is 25.6 µM; with DU-145 prostate, 2.58 µM; with HT29 colon it was 22.5 µM; in the test on M14 melanoma, 1.51 µM; with MDA-MB-231 breast, 4.36 µM; in the test with MDA-MB-435, 1.83 µM. Also, the GI50 is 13.8 µM with NCI-H226 lung, 3.6 µM with T-47D breast, 4.06 µM in the test with UACC-257 melanoma and 0.628 µM in the test on UO-31 renal. In addition, the concentration for total growth inhibition (TGI) was greater than 100 µM with A498 renal; greater than 100 µM in the test with DU-145 prostate; greater than 100 µM in the test on HT29 colon; 10.6 µM with M14 melanoma; 27.4 µM in the test on MDA-MB-231 breast; greater than 100 µM in the test on MDA-MB-435. Besides, the concentration for total growth inhibition (TGI) with NCI-H226 lung is 67.5 µM; with T-47D breast it was greater than 100 µM; with UACC-257 melanoma, greater than 100 µM; with UO-31 renal, 9.34 µM.
As to `CC(=O)[CH-]C(C)=O.CC(=O)[CH-]C(C)=O.N=CC=N.[Sn+2]`, the GI50 in the test with A498 renal was 9.97 µM; with DU-145 prostate, 2.77 µM; in the test on HT29 colon it was 3.41 µM; in the test with M14 melanoma, 2.41 µM; with MDA-MB-231 breast, 2.72 µM; in the test with MDA-MB-435, 2.59 µM. Besides, the GI50 in the test with NCI-H226 lung is 9.9 µM; in the test with T-47D breast, 1.23 µM; in the test with UACC-257 melanoma, 4.64 µM; with UO-31 renal, 9 µM. The TGI in the test with A498 renal was found to be 22.4 µM; in the test on DU-145 prostate, 11.2 µM; with HT29 colon, 10.8 µM; in the test on M14 melanoma, 5.7 µM; in the test on MDA-MB-231 breast it was 9.87 µM; with MDA-MB-435, 7.43 µM. The TGI was 23 µM with NCI-H226 lung, 2.62 µM in the test on T-47D breast, 15.9 µM in the test with UACC-257 melanoma and 21.1 µM with UO-31 renal.
On to `CC1=C(C)C(=O)O[C@@H]([C@](C)(O)[C@]2(O)CC[C@@]3(O)[C@@H]4C[C@H]5O[C@]56CC=CC(=O)[C@]6(C)[C@H]4CC[C@]23C)C1`, for which the GI50 was 0.218 µM in the test with A498 renal; 0.519 µM in the test with DU-145 prostate; 0.066 µM with HT29 colon; 0.101 µM with M14 melanoma; 0.394 µM in the test on MDA-MB-231 breast; 0.0541 µM in the test with MDA-MB-435. Also, the GI50 in the test on NCI-H226 lung was 0.453 µM; with T-47D breast, 0.111 µM; with UACC-257 melanoma it was 0.172 µM; in the test with UO-31 renal, 0.0957 µM. The TGI with A498 renal is 0.784 µM; in the test with DU-145 prostate it was 10.9 µM; in the test on HT29 colon it was 1.47 µM; in the test on M14 melanoma it was 1.67 µM; with MDA-MB-231 breast, 7.66 µM; in the test with MDA-MB-435, 1.08 µM. The TGI with NCI-H226 lung was determined as 4.49 µM; in the test on T-47D breast, 1.63 µM; with UACC-257 melanoma it was 2.33 µM; with UO-31 renal, 1.46 µM.
